Data published in the NIST ThermoML archive (doi:10.1016/j.tca.2011.11.025).
± gives the expanded uncertainty stated by the source.

Experiment: excess molar enthalpy (molar enthalpy of mixing); xn = mol fraction of the nth substance listed
Conditions: 308.15 K, 101 kPa, Liquid, 2-drop calorimeter

Cc1cccc(C)c1 [1,3-dimethylbenzene] + C1COCCO1
Conditions | excess molar enthalpy [kcal/mol]
x2 = 0.0638 | 0.0149 ± 0.000406
x2 = 0.1239 | 0.0289 ± 0.000693
x2 = 0.1845 | 0.0429 ± 0.00098
x2 = 0.223 | 0.0496 ± 0.00112
x2 = 0.2742 | 0.0593 ± 0.00131
x2 = 0.3357 | 0.0675 ± 0.00151
x2 = 0.4212 | 0.0759 ± 0.00167
x2 = 0.4781 | 0.0796 ± 0.00174
x2 = 0.5516 | 0.0797 ± 0.00174
x2 = 0.6212 | 0.0748 ± 0.00165
x2 = 0.6836 | 0.0687 ± 0.00153
x2 = 0.7583 | 0.0576 ± 0.00129
x2 = 0.7797 | 0.0534 ± 0.0012
x2 = 0.8183 | 0.0467 ± 0.00105
x2 = 0.8884 | 0.0298 ± 0.000717
x2 = 0.9481 | 0.0144 ± 0.000406

Cc1ccc(C)cc1 [1,4-dimethylbenzene] + C1COCCO1
Conditions | excess molar enthalpy [kcal/mol]
x2 = 0.0757 | 0.0122 ± 0.000359
x2 = 0.1355 | 0.0244 ± 0.000598
x2 = 0.1984 | 0.0362 ± 0.000837
x2 = 0.2656 | 0.0481 ± 0.0011
x2 = 0.3025 | 0.0538 ± 0.00122
x2 = 0.3648 | 0.062 ± 0.00139
x2 = 0.4154 | 0.0674 ± 0.00151
x2 = 0.4759 | 0.0705 ± 0.00155
x2 = 0.5524 | 0.0717 ± 0.00158
x2 = 0.6251 | 0.0687 ± 0.00153
x2 = 0.6956 | 0.0625 ± 0.00139
x2 = 0.7415 | 0.0563 ± 0.00127
x2 = 0.7867 | 0.0487 ± 0.0011
x2 = 0.8521 | 0.0355 ± 0.000837
x2 = 0.8953 | 0.026 ± 0.000621
x2 = 0.9326 | 0.0168 ± 0.000454
